The test relates to C57BL/6 mice, intracerebral ependymoblastoma, median survival T/C. Put plainly: NCI In Vivo Anticancer Drug Screen. Data for tumor model Ependymoblastoma (intracerebral) in C57BL/6 mice. To be noted: endpoint: median survival time, higher = longer survival. The protocol:
The antitumor activity of compounds was measured in mice bearing transplantable tumors. Survival or tumor size were measured and the results are expressed as the measurement made in the treated group (T) divided by the measurement made in the vehicle treated control group (C). The tumor model used in this assay is Ependymoblastoma (intracerebral) in C57BL/6 mice

Where [1] appears, read: dose: 90.0 mg/kg/injection, schedule: Q01DX005 (ip), vehicle: saline with Tween-80.
Where [2] appears, read: dose: 180.0 mg/kg/injection, schedule: Q01DX005 (ip), vehicle: saline with Tween-80.
Where [3] appears, read: dose: 360.0 mg/kg/injection, schedule: Q01DX005 (ip), vehicle: saline with Tween-80.
The mark [4] stands for this setting: dose: 2.0 mg/kg/injection, schedule: Q01DX005 (ip), vehicle: saline.
[5] abbreviates: dose: 4.0 mg/kg/injection, schedule: Q01DX005 (ip), vehicle: saline.
Where [6] appears, read: dose: 8.0 mg/kg/injection, schedule: Q01DX005 (ip), vehicle: saline.
[7] abbreviates: dose: 64.0 mg/kg/injection, schedule: Q01DX005 (ip), vehicle: Klucel (hydroxypropylcellulose) (HPC).

Where “and” joins values, the source holds several entries; their conditions need not be identical. Identical values can stand only once. Inconclusive results and toxic doses are left out.

Turning to `CC1CCC(NC(=O)N(CCCl)N=O)CC1` (stereo unspecified), the T/C reads like this: (dose: 8.0 mg/kg/injection, schedule: Q01DX001 (ip), vehicle: saline with Tween-80) 99 % of control; (dose: 8.0 mg/kg/injection, schedule: Q01DX005 (oral), vehicle: Klucel (hydroxypropylcellulose) (HPC)) 156 % of control; (dose: 16.0 mg/kg/injection, schedule: Q01DX001 (ip), vehicle: saline with Tween-80) 114 % of control; (dose: 16.0 mg/kg/injection, schedule: Q01DX005 (oral), vehicle: Klucel (hydroxypropylcellulose) (HPC)) 151 % of control; (dose: 32.0 mg/kg/injection, schedule: Q01DX001 (ip), vehicle: saline with Tween-80) 109 % of control; (dose: 32.0 mg/kg/injection, schedule: Q01DX001 (oral), vehicle: Klucel (hydroxypropylcellulose) (HPC)) 97 % of control. The T/C reads like this: (dose: 64.0 mg/kg/injection, schedule: Q01DX001 (ip), vehicle: saline with Tween-80) 95 % of control and 109 % of control; (dose: 64.0 mg/kg/injection, schedule: Q01DX001 (oral), vehicle: Klucel (hydroxypropylcellulose) (HPC)) 102 % of control; (dose: 128.0 mg/kg/injection, schedule: Q01DX001 (ip), vehicle: saline with Tween-80) 98 % of control and 102 % of control; (dose: 128.0 mg/kg/injection, schedule: Q01DX001 (oral), vehicle: Klucel (hydroxypropylcellulose) (HPC)) 102 % of control; (dose: 256.0 mg/kg/injection, schedule: Q01DX001 (ip), vehicle: saline with Tween-80) 97 % of control; (dose: 256.0 mg/kg/injection, schedule: Q01DX001 (oral), vehicle: Klucel (hydroxypropylcellulose) (HPC)) 95 % of control. Further, the T/C (dose: 512.0 mg/kg/injection, schedule: Q01DX001 (ip), vehicle: saline with Tween-80) is 92 % of control and the T/C (dose: 512.0 mg/kg/injection, schedule: Q01DX001 (oral), vehicle: Klucel (hydroxypropylcellulose) (HPC)) was 90 % of control.
Turning to `Nc1nc(=S)c2ncn(C3OC(COC(=O)c4ccc(Cl)cc4)C(OC(=O)c4ccc(Cl)cc4)C3OC(=O)c3ccc(Cl)cc3)c2[nH]1` (stereo unspecified), the T/C is, setting by setting: (dose: 18.75 mg/kg/injection, schedule: Q01DX005 (ip), vehicle: Klucel (hydroxypropylcellulose) (HPC)) 96 % of control; (dose: 37.5 mg/kg/injection, schedule: Q01DX005 (ip), vehicle: Klucel (hydroxypropylcellulose) (HPC)) 87 % of control.
Regarding `ClC1C(Cl)C(Cl)C(Cl)C(Cl)C1Cl` (stereo unspecified), the T/C is 96 % of control and 87 % of control (dose: 45.0 mg/kg/injection, schedule: Q01DX005 (ip), vehicle: saline with Tween-80); 94 % of control and 98 % of control under setting [1]; 107 % of control under setting [2]; 96 % of control and 103 % of control under setting [3].
Regarding `Cc1nc(N)nc(N)c1-c1ccc(Cl)c(Cl)c1`, the T/C was 106 % of control and 117 % of control (dose: 0.5 mg/kg/injection, schedule: Q01DX005 (ip), vehicle: saline with Tween-80); 89 % of control and 97 % of control (dose: 1.0 mg/kg/injection, schedule: Q01DX005 (ip), vehicle: saline with Tween-80); 117 % of control (dose: 2.0 mg/kg/injection, schedule: Q01DX005 (ip), vehicle: saline with Tween-80); 101 % of control (dose: 6.0 mg/kg/injection, schedule: Q04DX003 (ip), vehicle: saline); 112 % of control (dose: 8.0 mg/kg/injection, schedule: Q04DX003 (ip), vehicle: saline).
With `N[C@@H](Cc1ccc(N(CCCl)CCCl)cc1)C(=O)O`, the T/C is 103 % of control (dose: 0.5 mg/kg/injection, schedule: Q01DX001 (ip), vehicle: saline); 106 % of control and 110 % of control (dose: 0.5 mg/kg/injection, schedule: Q01DX005 (ip), vehicle: saline); 88 % of control (dose: 1.0 mg/kg/injection, schedule: Q01DX001 (ip), vehicle: saline); 96 % of control and 109 % of control and 110 % of control (dose: 1.0 mg/kg/injection, schedule: Q01DX005 (ip), vehicle: saline); 102 % of control (dose: 2.0 mg/kg/injection, schedule: Q01DX001 (ip), vehicle: saline); 98 % of control and 108 % of control under setting [4]. The T/C under setting [5] was 111 % of control; the T/C (dose: 8.0 mg/kg/injection, schedule: Q01DX001 (ip), vehicle: saline) was 119 % of control; the T/C under setting [6] is 100 % of control.
On to `O=P1(NCCCl)OCCC(OO)N1CCCl` (stereo unspecified), for which the T/C is, setting by setting: (dose: 40.0 mg/kg/injection, schedule: Q01DX001 (ip), vehicle: Klucel (hydroxypropylcellulose) (HPC)) 121 % of control; (dose: 80.0 mg/kg/injection, schedule: Q01DX001 (ip), vehicle: Klucel (hydroxypropylcellulose) (HPC)) 121 % of control; (dose: 160.0 mg/kg/injection, schedule: Q01DX001 (ip), vehicle: Klucel (hydroxypropylcellulose) (HPC)) 151 % of control.
Turning to `O=C(N[C@H](CO)[C@H](O)c1ccc([N+](=O)[O-])cc1)C(Cl)Cl`, the T/C is, setting by setting: under setting [1], 97 % of control; under setting [2], 95 % of control and 100 % of control; under setting [3], 87 % of control and 101 % of control; (dose: 720.0 mg/kg/injection, schedule: Q01DX005 (ip), vehicle: saline with Tween-80) 98 % of control.
As for `Cc1ncc([N+](=O)[O-])n1CCO`, the T/C by setting is: under setting [7], 103 % of control; (dose: 128.0 mg/kg/injection, schedule: Q01DX005 (ip), vehicle: Klucel (hydroxypropylcellulose) (HPC)) 99 % of control; (dose: 256.0 mg/kg/injection, schedule: Q01DX005 (ip), vehicle: Klucel (hydroxypropylcellulose) (HPC)) 107 % of control; (dose: 512.0 mg/kg/injection, schedule: Q01DX005 (ip), vehicle: Klucel (hydroxypropylcellulose) (HPC)) 111 % of control; (dose: 1024.0 mg/kg/injection, schedule: Q01DX005 (ip), vehicle: Klucel (hydroxypropylcellulose) (HPC)) 94 % of control.
In the case of `CCN(CC)CCNc1ccc(CO)c2sc3ccccc3c(=O)c12`, the T/C is, setting by setting: under setting [4], 94 % of control; under setting [5], 104 % of control; under setting [6], 104 % of control; (dose: 16.0 mg/kg/injection, schedule: Q01DX005 (ip), vehicle: saline) 101 % of control; (dose: 32.0 mg/kg/injection, schedule: Q01DX005 (ip), vehicle: saline) 111 % of control; (dose: 64.0 mg/kg/injection, schedule: Q01DX005 (ip), vehicle: saline) 119 % of control.
With `CC(=O)CC(c1ccccc1)c1c(O)c2ccccc2oc1=O` (stereo unspecified), the T/C runs as follows: (dose: 0.09 mg/kg/injection, schedule: Q01DX005 (ip), vehicle: saline) 93 % of control; (dose: 0.18 mg/kg/injection, schedule: Q01DX005 (ip), vehicle: saline) 115 % of control; (dose: 0.36 mg/kg/injection, schedule: Q01DX005 (ip), vehicle: saline) 98 % of control; (dose: 1.44 mg/kg/injection, schedule: Q01DX005 (ip), vehicle: saline) 87 % of control.
As for `C1OC1CN1CCN(CC2CO2)CC1` (stereo unspecified), the T/C reads like this: (dose: 3.12 mg/kg/injection, schedule: Q01DX005 (ip), vehicle: saline) 101 % of control; (dose: 6.25 mg/kg/injection, schedule: Q01DX005 (ip), vehicle: saline) 97 % of control; (dose: 25.0 mg/kg/injection, schedule: Q01DX005 (ip), vehicle: saline) 98 % of control.
`NC(CSC(c1ccccc1)(c1ccccc1)c1ccccc1)C(=O)O` (stereo unspecified): the T/C by setting is: (dose: 32.0 mg/kg/injection, schedule: Q01DX005 (ip), vehicle: Klucel (hydroxypropylcellulose) (HPC)) 99 % of control; under setting [7], 109 % of control.

Source of the values: PubChem BioAssay AID222 (DTP/NCI, 2004).
